Our source for the pest or weed control values is patent US10590143B2, “Herbicidally active (alkynyl-phenyl)-substituted cyclic dione compounds and derivatives thereof” (Syngenta Limited, priority 2013, dated 2020).

Where two headings read alike, the source gives them in different places.

Common to all, as to experiment: Biological Example 1 glasshouse assay for herbicidal activity
Common to all, as to assay type: in vivo

Assay [1] concerns Abutilon theophrasti (ABUTH). As to conditions: 312 h, 13 days after application, read-out: percentage phytotoxicity ABUTH. Put shortly:
(§1)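 Visual % phytotoxicity (0% = no damage, 100% = total damage) scored 13 days after spraying. Spray: acetone/water 50:50 + 0.5% Tween 20, applied pre-emergence (day 1 after sowing) or post-emergence (day 8). Usually one plant per species per rate and timing.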

In assay [2] the test system is Amaranthus retroflexus (AMARE). To be noted: Amaranthus retroflexus, 312 h, 13 days after application, read-out: percentage phytotoxicity AMARE. Put shortly: as §1
In the next assay the test system is Setaria faberi (SETFA). As to conditions: 312 h, 13 days after application, read-out: percentage phytotoxicity SETFA. Put shortly: as §1
In assay [3] the test system is Echinochloa crus-galli (ECHCG). To be noted: Echinochloa crus-galli, 312 h, 13 days after application, read-out: percentage phytotoxicity ECHCG. Put shortly:
as §1

Assay [4] has as its system Zea mays (ZEAMX, corn, maize, e.g. volunteer corn). As to conditions: Zea mays, 312 h, 13 days after application, read-out: percentage phytotoxicity ZEAMX. Put shortly:
as §1

The subject of assay [5] is Alopecurus myosuroides (ALOMY). As to conditions: 312 h, 13 days after application, read-out: percentage phytotoxicity ALOMY. Put shortly: as §1
[6] abbreviates: pre-emergence, pre-emergence, 30 g/ha.

As for `COc1cc(C#CCl)cc(F)c1C1C(=O)C2CCC(C2)C1=O` (stereo not drawn) [Compound A8, 3-[4-(2-chloroethynyl)-2-fluoro-6-methoxy-phenyl]bicyclo[3.2.1]octane-2,4-dione], the pest or weed control at 250 g/ha in assay [1] (post-emergence, post-emergence) amounted to 0%; in assay [1] (pre-emergence, pre-emergence) it was 0%; in assay [2] (post-emergence, post-emergence) it was 10%; in assay [2] (pre-emergence, pre-emergence), 40%; with Setaria faberi (SETFA) (post-emergence, post-emergence), 70%; in the assay with Setaria faberi (SETFA) (pre-emergence, pre-emergence), 60%. Moreover, the pest or weed control at 250 g/ha in assay [3] (post-emergence, post-emergence) is 70%; in assay [3] (pre-emergence, pre-emergence), 60%; in assay [4] (post-emergence, post-emergence) it was 50%; in assay [4] (pre-emergence, pre-emergence), 70%; in assay [5] (post-emergence), 70%; in assay [5] (pre-emergence) it was 60%. For the same molecule, the pest or weed control at 30 g/ha in assay [1] (setting [6]) is 10%; in assay [2] (setting [6]) it was 50%; with Setaria faberi (SETFA) (setting [6]) it was 60%; in assay [3] (setting [6]) it was 30%; in assay [4] (setting [6]), 60%; in assay [5] (pre-emergence, 30 g/ha), 40%.
